{"source": "patent US8314140B2", "about": "“4-hydroxythiobenzamide derivatives of drugs” (Antibe Therapeutics Inc., priority 2006, dated 2012)", "key": {"gastric damage [1]": {"tested_on": "gastric damage", "assay": "Incidence of gastric damage at end of the leukocyte adherence experiment", "settings": "for Percent Incidence of Gastric Damage: intragastric 30 μmol/kg (naproxen and Compound XX 60 μmol/kg), end of experiment", "description": "(§1) Briefly, post-capillary mesenteric venules in anestheitized rats are examined under a light microscope."}, "[2]": {"tested_on": "leukocyte adherence to the vascular endothelium", "assay": "Leukocyte adherence after NSAID or derivative, intravital microscopy (Example 21)", "assay_type": "in vivo, rat", "settings": "for number of adherent leukocytes compared to the parent drug alone: comment on Table 2", "description": "as §1"}, "COX-1 [3]": {"target": "COX-1 (Homo sapiens, UniProt P23219)", "sequence (P23219 24-599)": "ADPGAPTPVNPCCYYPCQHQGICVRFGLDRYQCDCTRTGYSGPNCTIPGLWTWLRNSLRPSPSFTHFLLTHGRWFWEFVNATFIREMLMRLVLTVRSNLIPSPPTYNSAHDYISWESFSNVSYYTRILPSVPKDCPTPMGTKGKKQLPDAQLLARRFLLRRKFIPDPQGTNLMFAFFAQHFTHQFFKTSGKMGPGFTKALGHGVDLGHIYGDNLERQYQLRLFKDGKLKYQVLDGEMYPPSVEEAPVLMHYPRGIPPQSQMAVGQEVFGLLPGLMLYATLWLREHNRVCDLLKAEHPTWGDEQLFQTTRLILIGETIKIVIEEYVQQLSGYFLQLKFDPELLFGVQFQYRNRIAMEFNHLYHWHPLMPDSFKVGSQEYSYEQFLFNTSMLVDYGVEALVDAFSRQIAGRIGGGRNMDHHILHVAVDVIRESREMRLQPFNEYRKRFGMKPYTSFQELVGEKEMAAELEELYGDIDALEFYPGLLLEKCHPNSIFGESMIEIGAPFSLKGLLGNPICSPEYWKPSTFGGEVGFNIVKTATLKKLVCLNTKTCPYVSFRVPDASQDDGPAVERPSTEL", "settings": "FIG. 16", "protocol": "Aliquots (0.5 mL) of blood from healthy human volunteers were added to glass tubes containing 10 uL of methanol alone, or one of the test drugs prepared such that the final concentration would be 0.1, 0.3, 1 or 3 μM. The tubes were placed in water bath (37° C.) with gentle shaking for 45 min, after which they were centrifuged (1,000×g) for 10 minutes. The concentration of thromboxane B2 in each sample was then determined using a specific ELISA, as in the studies shown in FIG. 11."}, "COX-1 [4]": {"target": "T1, COX-1 (Rattus norvegicus, UniProt Q63921)", "T1 construct": "whole blood thromboxane synthesis, which occurs via COX-1; from tissue; host or cells: rat whole blood, ex vivo after oral dosing", "T1 sequence (Q63921 27-602)": "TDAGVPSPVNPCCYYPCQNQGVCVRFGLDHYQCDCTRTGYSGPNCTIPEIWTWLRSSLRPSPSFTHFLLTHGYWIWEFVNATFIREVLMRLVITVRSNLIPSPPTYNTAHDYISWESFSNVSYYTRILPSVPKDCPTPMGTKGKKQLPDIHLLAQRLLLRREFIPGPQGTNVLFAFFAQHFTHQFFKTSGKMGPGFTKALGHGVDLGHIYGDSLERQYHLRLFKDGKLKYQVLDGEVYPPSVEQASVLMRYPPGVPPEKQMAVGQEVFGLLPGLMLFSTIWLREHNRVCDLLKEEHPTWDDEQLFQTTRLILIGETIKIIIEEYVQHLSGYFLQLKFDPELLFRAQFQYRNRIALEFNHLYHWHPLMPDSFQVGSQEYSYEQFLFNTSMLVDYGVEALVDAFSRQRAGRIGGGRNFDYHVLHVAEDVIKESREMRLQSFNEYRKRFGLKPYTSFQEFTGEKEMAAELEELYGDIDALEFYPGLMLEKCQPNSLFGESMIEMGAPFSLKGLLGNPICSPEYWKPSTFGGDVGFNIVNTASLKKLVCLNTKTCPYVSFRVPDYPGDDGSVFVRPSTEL", "assay": "Whole blood thromboxane B2 synthesis in treated rats", "assay_type": "in vivo", "settings": "60 μmol/kg oral; versus vehicle; FIG. 11", "protocol": "Inhibition of COX-1 was also measured using the same rats. […] The samples were then centrifuged for 3 min at 9,000 g and the supernatant was frozen at −80° C. for subsequent measurement of thromboxane B2 concentrations using a specific ELISA.\nInhibition of COX-1 was also measured using the same rats, using the same method as described for FIG. 11."}, "gastric ulcers": {"tested_on": "gastric ulcers", "assay": "Healing of acetic acid-induced gastric ulcers", "assay_type": "in vivo, rat", "settings": "oral twice-daily for 4 days; 30 μmol/kg (naproxen, Compound XX 60 μmol/kg); FIG. 17", "protocol": "Gastric ulcers were induced via serosal application of acetic acid, as described by Elliott et al., A nitric oxide-releasing nonsteroidal anti-inflammatory drug accelerates gastric ulcer healing in rats. […] After 4 days of such treatment, the rats were euthanized and the stomach was excised and photographed. The area (in mm^2) of the ulcer was determined planimetrically by an individual unaware of the treatments given to the rats."}, "gastric damage [5]": {"tested_on": "gastric damage", "assay": "Gastric damage score 3 h after oral dosing", "assay_type": "in vivo, rat", "settings": "oral 60 μmol/kg, 3 hours; FIG. 10", "description": "There were 5 rats in each group.\nEach group consisted of 5 rats."}, "[6]": {"assay": "H2S generation in buffer and liver homogenate (Example 15)", "assay_type": "in vitro ADME, rat", "settings": "1 mM compound, FIG. 6", "protocol": "(Compound XXVII) was tested for H2S generation under three different conditions. Concentrations of H2S that were generated within 1 hour from 1 mM concentrations of L-cysteine, 4-HBT (4-hydroxythiobenzamide) and 5-amino-2-(4-thiocarbamoyl-phenoxycarbonyloxy)-benzoic acid were measured. H2S release was tested under three conditions: (i) when the compound was in buffer, (ii) when the compound was in a liver homogenate, and (iii) when the compound was in the liver homogenate together with an inhibitor of cystathionine γ-lyase (PAG=DL-propargylglycine; 2 mM). Results are shown in FIG. 6. *p<0.05 compared to the release from the vehicle group. ^ψp>0.05 versus the corresponding ‘homogenate’ group. The enzymatic capacity for H2S production was determined using the same reactor as described previously (Khan et al. (1980) Microchem J 25: 388-395, incorporated herein by reference). Two ml of an assay reaction mixture was introduced in the reactor. The mixture contained 1 mM L-cysteine (or compound), 2 mM pyridoxal 5′-phosphate, 100 mM potassium phosphate buffer (pH=7.4). A constant stream of nitrogen was passed through the mixture via gas-inlet capillary. Reactions were initiated by transferring the tubes from ice bath to a 37° C. water bath. The stream of nitrogen carried the sulfide acid in the second reactor containing 4 ml of sulfide anti-oxidant buffer (SAOB) solution, consisting of 2M KOH, 1M salicylic acid and 0.22M ascorbic acid at pH 12.8[5]. After incubating at 37° C. for 90 minutes, 1 ml of 10% trichloroacetic acid solution was added to mixture to stop the reaction. The remainder H2S in the mixture was carried out via nitrogen stream by other 60 minutes of incubation at 37° C. The concentration of sulfide in SAOB solution was measured with a sulfide sensitive electrode (Model 9616 S^2−/Ag^+ electrode, Orion Research, Beverly, Mass., USA). For studies in which the test compounds were incubated in liver homogenate, 100-150 mg of isolated rat livers were homogenized in 1 ml of ice-cold T-PER protein extractor. The homogenates were added to the reaction mixture at a concentration of 10% (wt/vol). DL-propargylglycine 2 mM was incubated with liver homogenates for 5 min at 37° C. prior the enzyme reaction. Khan, S. U. Morris, G. F. and Hidiroglou, M. (1980) Rapid estimation of sulfide in rumen and blood with a sulfide-specific ion electrode. Microchem J. 25:388-395, incorporated herein by reference."}, "[7]": {"tested_on": "carrageenan-induced paw edema", "assay": "Carrageenan hindpaw edema model", "assay_type": "in vivo, rat", "settings": "oral 30 min prior to carrageenan; diclofenac 1, 3 or 10 mg/kg; Compound XVII equimolar to diclofenac 3 mg/kg; FIG. 14", "protocol": "Male, Wistar rats weighing 175-200 g were given the test compounds orally 30 min prior to subplantar injection of 100 ul of 1% lambda carrageenan."}, "visceral pain perception": {"tested_on": "visceral pain perception", "assay": "Rat model of visceral pain perception (colorectal distension, AWR score)", "assay_type": "in vivo", "protocol": "A rat model of visceral pain perception, a pre-clinical model of irritable bowel syndrome, was used in the following example. Rats (male, Wistar, 200-250 g, obtained from Charles River, Monza, Italy), were housed in plastic cages and maintained under controlled conditions with 12-hours light/dark cycle with lights on at 7.00 AM. Tap water and standard laboratory chow were freely available. Before experiments, rats were individually trained by spending 2-3 hours per day in a plexiglass cage for 2-3 days. It allowed them to adjust to a movement-restriction environment. Food was withheld for 12 hours before colorectal distension (CRD) recording were performed. Experiments were performed in awake rats and were conducted in a blind manner in that the observer was not aware of the identity of drug administered to each animal.\nIn the testing day, rats were sedated with ether inhalation and a 2 cm long latex balloon was inserted intrarectally 2 cm from the anal verge and fixed at the base of the tail. The balloon was connected via a double-barreled cannula to a pressure transducer to continuously monitoring the rectal pressure by a computer (PowerLab PC, A.D. Instruments, Milford, Mass., USA) and to a syringe for inflation/deflation of the balloon. The rats were then housed in a small cage (20×8×8 cm) on an elevated Plexiglas™ platform and allowed to wake up and adapt for 1 hour. After recovery from sedation, animals underwent the CRD procedure and behavioral responses were tested. The night before the experiments, the balloons were inflated and left overnight so the latex stretched and the balloons became compliant.\nCRD of 20 seconds, performed every 5 minutes, was applied in increment of 0.4 ml starting from 0.4 ml up to 1.6 ml water. To achieve an accurate measurement of the colonic parameters and perception, the distensions were repeated twice for each intensity and data for each animal were averaged for analysis. Each animal underwent a double set of CRD. Twenty minutes after the first sequence of CRD (0.4 mL-1.6 ml water), drugs were administered intraperitoneally (i.p.) and a second set of CRD was performed. Behavioral responses during the first and the second set of CRD were assessed and compared.\nBehavioral response to CRD was assessed by measuring the abdominal withdrawal reflex (AWR) using a semiquantitative score (1).\nA rat model of visceral pain perception as described above was used to compare pain perception scores for 5-amino-2-(4-thiocarbamoyl-phenoxycarbonyloxy)-benzoic acid (Compound XXVII) with or without glibenclamide, an inhibitor of ATP-sensitive K^+ (KATP) channels.\nExperiments were carried out as described in Example 13, except that groups of 5 rats each were treated with vehicle, trimebutine maleate (10 mg/kg), or with equimolar doses of trimebutine thiocarbamoylbenzoate (Compound III) or thiocarbamolybenzoate alone."}}, "note": "“Also recorded” adds a separate entry of the source."}
{"smiles": "COc1ccc2c(c1)c(CC(=O)Oc1ccc(C(N)=S)cc1)c(C)n2C(=O)c1ccc(Cl)cc1", "note": "[Compound XIX, [1-(4-Chloro-benzoyl)-5-methoxy-2-methyl-1-H-indol-3-yl]-acetic acid 4-thiocarbamoyl-phenyl ester]", "values": [{"measurement": "Percent Incidence of Gastric Damage", "setting": "gastric damage [1]", "result": 0, "unit": "%"}, {"measurement": "Number of Adherent Leukocytes", "setting": "[2]; intragastric 30 μmol/kg (naproxen and Compound XX 60 μmol/kg), mean±SEM", "result": "3.0 ± 0.4", "unit": "per 100 μm vessel length"}, {"measurement": "melting point", "result": "224 to 226", "unit": "°C"}, {"measurement": "thromboxane synthesis by human blood (COX-1 activity)", "setting": "COX-1 [3]; 0.1, 0.3, 1 or 3 μM, 45 min, 37° C.", "result": "concentration-dependent inhibition of COX-1 activity"}, {"measurement": "thromboxane synthesis by human blood (COX-1 activity) versus indomethacin", "setting": "COX-1 [3]; concentrations of 1 and 3 μM", "result": "significantly greater (*p<0.05) inhibition of COX-1 activity than that produced by indomethacin"}]}
{"smiles": "CC(=O)Oc1ccccc1C(=O)Oc1ccc(C(N)=S)cc1", "note": "[Compound XVI, 2-Acetoxy-benzoic acid 4-thiocarbamoyl-pheny ester]", "values": [{"measurement": "percent incidence of gastric damage compared to the parent drug alone", "setting": "gastric damage [1]; comment on Table 2", "result": "significantly reduced the percent incidence of gastric damage"}, {"measurement": "Percent Incidence of Gastric Damage", "setting": "gastric damage [1]", "result": 0, "unit": "%"}, {"measurement": "number of adherent leukocytes compared to the parent drug alone", "setting": "[2]", "result": "significantly reduced the number of adherent leukocytes"}, {"measurement": "melting point", "result": "154 to 156", "unit": "°C"}]}
{"smiles": "Cc1ccc(Nc2c(F)cccc2Cl)c(CC(=O)Oc2ccc(C(N)=S)cc2)c1", "note": "[Compound XVIII, 4-thiocarbamoylphenyl 2-(2-(2-chloro-6-fluorophenylamino)-5-methylphenyl)acetate]", "values": [{"measurement": "percent incidence of gastric damage compared to the parent drug alone", "setting": "gastric damage [1]; comment on Table 2", "result": "no incidences of gastric damage"}, {"measurement": "Percent Incidence of Gastric Damage", "setting": "gastric damage [1]", "result": 0, "unit": "%"}, {"measurement": "number of adherent leukocytes compared to the parent drug alone", "setting": "[2]", "result": "significantly reduced the number of adherent leukocytes"}, {"measurement": "melting point", "result": "120 to 122", "unit": "°C"}]}
{"smiles": "COc1ccc2cc(C(C)C(=O)Oc3ccc(C(N)=S)cc3)ccc2c1", "note": "(centres unmarked) [Compound XX, 2-(6-Methoxy-naphthalen-2-yl)-propionic acid 4-thiocarbamyl-phenyl ester]", "values": [{"measurement": "percent incidence of gastric damage compared to the parent drug alone", "setting": "gastric damage [1]; rat, in vivo", "result": "significantly reduced the percent incidence of gastric damage"}, {"measurement": "thromboxane B2 synthesis in blood (COX-1 activity)", "setting": "COX-1 [4]", "result": "significantly (*p<0.05) inhibited COX-1 activity"}, {"measurement": "number of adherent leukocytes compared to the parent drug alone", "setting": "[2]", "result": "significantly reduced the number of adherent leukocytes"}, {"measurement": "gastric ulcer healing (ulcer surface area)", "setting": "gastric ulcers", "result": "significantly greater healing"}, {"measurement": "gastric damage score", "setting": "gastric damage [5]", "result": "significantly less damage than naproxen itself; also recorded: not detectable"}]}
{"smiles": "N[C@@H](CS)C(=O)O", "note": "[L-cysteine, reference compound]", "values": [{"measurement": "H2S generation in buffer", "setting": "[6]; buffer pH 7.4, 37° C.", "result": "did not release significant H2S"}, {"measurement": "H2S generation in liver homogenate with PAG", "setting": "[6]; liver homogenate plus DL-propargylglycine 2 mM", "result": "markedly inhibited by PAG"}]}
{"smiles": "O=C(O)Cc1ccccc1Nc1c(Cl)cccc1Cl", "note": "[diclofenac, reference compound]", "values": [{"measurement": "paw edema (paw volume increase)", "setting": "[7]", "result": "dose-dependently reduced paw edema"}]}
{"smiles": "COc1ccc(Cl)cc1C(=O)NCCc1ccc(S(=O)(=O)NC(=O)NC2CCCCC2)cc1", "note": "[glibenclamide, reference compound]", "values": [{"measurement": "pain perception score after glibenclamide pretreatment", "setting": "visceral pain perception; 0.8 mL colorectal distention, glibenclamide 10 mg/kg i.p. 30 min before, FIG. 3", "result": "did not affect the pain perception"}]}
{"smiles": "CCC(COC(=O)c1cc(OC)c(OC)c(OC)c1)(c1ccccc1)N(C)C.NC(=S)c1ccc(C(=O)O)cc1", "note": "(centres unmarked) [trimebutine thiocarbamoylbenzoate, 3,4,5-trimethoxybenzoic acid 2-(dimethylamino)-2-phenylbutyl ester 4-thiocarbamoyl benzoate]", "values": [{"measurement": "perception score (AWR Score)", "setting": "visceral pain perception; doses equimolar to trimebutine maleate 10 mg/kg, FIG. 7", "result": "more effective than either trimebutine maleate or thiocarbamoylbenzoate in reducing visceral pain"}]}
